Measurements taken from ChEMBL document CHEMBL4823314, “Design, synthesis and biological evaluation of novel acridine and quinoline derivatives as tubulin polymerization inhibitors with anticancer activities” (Bioorg Med Chem, 2021).
Activity calls are given as the source filed them. The rule behind the calls is not given here.

Tests used:
[1] = tested on: HepG2; test: Antimigratory activity in human HepG2 cells assessed as inhibition of cell migration incubated for 24 hrs by scratch wound healing assay; format: functional, cell-based; details: dose 0.1-1 µM
[2] = tested on: HepG2; test: Cell cycle arrest in human HepG2 cells assessed as accumulation at G1 phase at 5 uM measured after 48 hrs by propidium iodide staining based flow cytometry analysis (reference value: 56.11%); format: functional
[3] = tested on: HepG2; test: Induction of apoptosis in human HepG2 cells assessed as viable cells at 1 uM measured after 48 hrs by AnnexinV-FITC/propidium iodide staining based flow cytometry (reference value: 82.2%); format: functional; details: read-out: Activity
[4] = tested on: HepG2; test: Induction of apoptosis in human HepG2 cells assessed as necrotic cells at 5 uM measured after 48 hrs by AnnexinV-FITC/propidium iodide staining based flow cytometry (reference value: 1.05%); format: functional
[5] = tested on: HepG2; test: Induction of apoptosis in human HepG2 cells assessed as necrotic cells at 0.5 uM measured after 48 hrs by AnnexinV-FITC/propidium iodide staining based flow cytometry (reference value: 1.05%); format: functional
[6] = tested on: HepG2; test: Cell cycle arrest in human HepG2 cells assessed as accumulation at G1 phase at 0.5 uM measured after 48 hrs by propidium iodide staining based flow cytometry analysis (reference value: 56.11%); format: functional
[7] = tested on: B16-F10; test: Antiproliferative activity against mouse B16-F10 cells assessed as reduction in cell viability measured after 48 hrs by MTT assay; format: functional, cell-based; details: B16-F10, 48 h
[8] = tested on: HepG2; test: Antiproliferative activity against human HepG2 cells assessed as reduction in cell viability measured after 48 hrs by MTT assay; format: functional, cell-based; details: HepG2, 48 h
[9] = tested on: HepG2; test: Induction of apoptosis in human HepG2 cells assessed as late apoptotic cells at 5 uM measured after 48 hrs by AnnexinV-FITC/propidium iodide staining based flow cytometry (reference value: 5.93%); format: functional
[10] = tested on: HepG2; test: Induction of apoptosis in human HepG2 cells assessed as necrotic cells at 1 uM measured after 48 hrs by AnnexinV-FITC/propidium iodide staining based flow cytometry (reference value: 1.05%); format: functional
[11] = tested on: HepG2; test: Induction of apoptosis in human HepG2 cells assessed as viable cells at 0.5 uM measured after 48 hrs by AnnexinV-FITC/propidium iodide staining based flow cytometry (reference value: 82.2%); format: functional; details: read-out: Activity
[12] = tested on: MCF7; test: cells; details: Homo sapiens, MCF7, 48 h
Description: Antiproliferative activity against human MCF7 cells assessed as reduction in cell viability measured after 48 hrs by MTT assay

[13] = tested on: B16-F10; test: Antiproliferative activity against mouse B16-F10 cells assessed as reduction in cell viability at 0.5 uM by MTT assay; format: functional, cell-based; details: time 12-72 hrs, TDE = time-dependent effect
[14] = tested on: HeLa; test: cells; details: Homo sapiens, 48 h
Description: Antiproliferative activity against human HeLa cells assessed as reduction in cell viability measured after 48 hrs by MTT assay

[15] = tested on: HepG2; test: Induction of apoptosis in human HepG2 cells assessed as early apoptotic cells at 1 uM measured after 48 hrs by AnnexinV-FITC/propidium iodide staining based flow cytometry (reference value: 10.8%); format: functional
[16] = tested on: HepG2; test: Cell cycle arrest in human HepG2 cells assessed as accumulation at G1 phase at 1 uM measured after 48 hrs by propidium iodide staining based flow cytometry analysis (reference value: 56.11%); format: functional
[17] = tested on: HeLa; test: Antiproliferative activity against human HeLa cells assessed as reduction in cell viability at 0.5 uM by MTT assay; format: functional, cell-based; details: time 12-72 hrs, TDE = time-dependent effect
[18] = tested on: HepG2; test: Antiproliferative activity against human HepG2 cells assessed as reduction in cell viability incubated for 48 hrs by MTT assay; format: functional, cell-based; details: dose 2.5-10 µM
[19] = tested on: HepG2; test: Inhibition of colony formation in human HepG2 cells incubated for 24 hrs by crystal violet staining based analysis; format: functional, cell-based; details: dose 0.1-1 µM
[20] = tested on: HepG2; test: Cell cycle arrest in human HepG2 cells assessed as accumulation at G2/M phase at 0.5 uM measured after 48 hrs by propidium iodide staining based flow cytometry analysis (reference value: 9.27%); format: functional
[21] = tested on: HepG2; test: Disruption of microtubule network in human HepG2 cells incubated for 12 hrs by DAPI staining based immunofluorescence analysis; format: functional, cell-based; details: dose 0.1-1 µM
[22] = tested on: B16-F10; test: Antiproliferative activity against mouse B16-F10 cells assessed as reduction in cell viability incubated for 48 hrs by MTT assay; format: functional, cell-based; details: dose 2.5-10 µM
[23] = tested on: MCF7; test: Antiproliferative activity against human MCF7 cells assessed as reduction in cell viability incubated for 48 hrs by MTT assay; format: functional, cell-based; details: dose 2.5-10 µM
[24] = tested on: HepG2; test: Cell cycle arrest in human HepG2 cells assessed as accumulation at G2/M phase at 1 uM measured after 48 hrs by propidium iodide staining based flow cytometry analysis (reference value: 9.27%); format: functional
[25] = tested on: HepG2; test: Induction of apoptosis in human HepG2 cells assessed as early apoptotic cells at 0.5 uM measured after 48 hrs by AnnexinV-FITC/propidium iodide staining based flow cytometry (reference value: 10.8%); format: functional
[26] = tested on: HepG2; test: Inhibition of colony formation in human HepG2 cells at 1 uM incubated for 24 hrs by crystal violet staining based analysis; format: functional, cell-based
[27] = tested on: HepG2; test: Antiproliferative activity against human HepG2 cells assessed as reduction in cell viability at 0.5 uM by MTT assay; format: functional, cell-based; details: time 12-72 hrs, TDE = time-dependent effect
[28] = tested on: HepG2; test: Induction of apoptosis in human HepG2 cells assessed as viable cells at 5 uM measured after 48 hrs by AnnexinV-FITC/propidium iodide staining based flow cytometry (reference value: 82.2%); format: functional; details: read-out: Activity
[29] = tested on: HepG2; test: Cell cycle arrest in human HepG2 cells assessed as accumulation at S phase at 1 uM measured after 48 hrs by propidium iodide staining based flow cytometry analysis (reference value: 34.13%); format: functional
[30] = tested on: HepG2; test: Cell cycle arrest in human HepG2 cells assessed as accumulation at S phase at 5 uM measured after 48 hrs by propidium iodide staining based flow cytometry analysis (reference value: 34.13%); format: functional
[31] = tested on: HepG2; test: Induction of apoptosis in human HepG2 cells assessed as late apoptotic cells at 1 uM measured after 48 hrs by AnnexinV-FITC/propidium iodide staining based flow cytometry (reference value: 5.93%); format: functional
[32] = tested on: MCF7; test: Antiproliferative activity against human MCF7 cells assessed as reduction in cell viability at 0.5 uM by MTT assay; format: functional, cell-based; details: time 12-72 hrs, TDE = time-dependent effect
[33] = tested on: HeLa; test: Antiproliferative activity against human HeLa cells assessed as reduction in cell viability incubated for 48 hrs by MTT assay; format: functional, cell-based; details: dose 2.5-10 µM
[34] = tested on: HepG2; test: Induction of apoptosis in human HepG2 cells assessed as late apoptotic cells at 0.5 uM measured after 48 hrs by AnnexinV-FITC/propidium iodide staining based flow cytometry (reference value: 5.93%); format: functional
[35] = tested on: HepG2; test: Cell cycle arrest in human HepG2 cells assessed as accumulation at S phase at 0.5 uM measured after 48 hrs by propidium iodide staining based flow cytometry analysis (reference value: 34.13%); format: functional
[36] = species: Sus scrofa; test: Inhibition of pig brain tubulin polymerization measured upto 20 mins by spectrophotometric method; details: dose 3-100 µM, time min <=20
[37] = tested on: HepG2; test: Cell cycle arrest in human HepG2 cells assessed as accumulation at G2/M phase at 5 uM measured after 48 hrs by propidium iodide staining based flow cytometry analysis (reference value: 9.27%); format: functional
[38] = Inhibition of pig brain tubulin polymerization by spectrophotometric method; format: tissue-based, Sus scrofa
[39] = tested on: HepG2; test: Induction of apoptosis in human HepG2 cells assessed as early apoptotic cells at 5 uM measured after 48 hrs by AnnexinV-FITC/propidium iodide staining based flow cytometry (reference value: 10.8%); format: functional

Which Activity [1] does the source give for COc1ccc(N(C)c2cccc3ncccc23)cc1 here?
Its Activity is “Dose-Dependent Effect”.

And the Activity [2]?
The Activity was 38%.

And the viability at 1 µM [3]?
Its viability at 1 µM is 10.6%.

What about the Activity [4] of the same molecule?
Its Activity is 2.5%.

What about the Activity [5] of the same molecule?
The Activity was 2.58%.

And the Activity [6]?
Its Activity is 42.3%.

What about the IC50 [7] of the same molecule?
The IC50 was 563 nM.

What about the IC50 [8] of the same molecule?
The IC50 was 261 nM.

And the Activity [9]?
The Activity was 39.4%.

What about the Activity [10] of the same molecule?
Its Activity is 1.38%.

And the viability at 0.5 µM [11]?
Its viability at 0.5 µM is 25.2%.

And the IC50 [12]?
The IC50 was 609 nM.

And the Activity [13]?
The Activity was “Tde”.

What about the IC50 [14] of the same molecule?
The IC50 was 2050 nM.

And the Activity [15]?
Its Activity is 59.6%.

What about the Activity [16] of the same molecule?
Its Activity is 32.66%.

What about the Activity [17] of the same molecule?
Its Activity is “Tde”.

And the Activity [18]?
The Activity was “Dose-Dependent Effect”.

What about the inhibition [19] of the same molecule?
Its inhibition is “Dose-Dependent Effect”.

And the Activity [20]?
Its Activity is 17.46%.

What about the Activity [21] of the same molecule?
Its Activity is “Active”.

And the Activity [22]?
The Activity was “Dose-Dependent Effect”.

And the Activity [23]?
Its Activity is “Dose-Dependent Effect”.

And the Activity [24]?
The Activity was 27.32%.

What about the Activity [25] of the same molecule?
The Activity was 48.9%.

What about the inhibition [26] of the same molecule?
The inhibition was “Active”.

What about the Activity [27] of the same molecule?
The Activity was “Tde”.

And the viability at 5 µM [28]?
The viability at 5 µM was 19.3%.

And the Activity [29]?
The Activity was 38.01%.

And the Activity [30]?
Its Activity is 30.88%.

What about the Activity [31] of the same molecule?
Its Activity is 28.5%.

And the Activity [32]?
Its Activity is “Tde”.

And the Activity [33]?
The Activity was “Dose-Dependent Effect”.

And the Activity [34]?
The Activity was 23.3%.

And the Activity [35]?
The Activity was 38.55%.

And the inhibition [36]?
Its inhibition is “Dose-Dependent Effect”.

And the Activity [37]?
Its Activity is 32.13%.

And the IC50 [38]?
Its IC50 is 12400 nM.

And the Activity [39]?
The Activity was 38.8%.
